The test system of the experiment is C2C12 cells. Kind of experiment: IGF-1 versus PPF1 dose-response on glucose utilization, C2C12 cells in 2% horse serum. It counts as cell-based. Conditions: treatment day 5, read day 6. As to the method:
FIG. 16A and FIG. 16B report the effects of insulin-like growth factor-1 (IGF-1) on glucose utilization in C2C12 cells treated in 2% horse serum. Cells were plated in DMEM plus 4.5 g/L of glucose and 10% fetal bovine serum (FBS) at Day −2 (d−2). At Day 0 (d0) media was refreshed with DMEM plus 1 g/L glucose and 2% horse serum. At Day 5 (d5) various treatments were added with glucose utilization determined at Day 6 (d6). […] Recombinant human IGF1 was purchased from R&D Systems (Cat. 291-G1). […] IGF-1 is known to have an impact on metabolism of myotubes, and its presence in PPF1 has been calculated as approximately 14.88 ng/mL. […] Thus, other factors must necessarily be involved in the effects of PPF1.

On to “recombinant human IGF-1: Recombinant human IGF1 purchased from R&D Systems (Cat. 291-G1)”, for which the “EC50, glucose utilization” value is 0.01743 µg/mL.
